Data reported in patent US10786503B2, “Treatment of adipocytes” (Melior Pharmaceuticals I, Inc., priority 2017, dated 2020).
One block for each molecule: values may come before it.

Experiments:
[1] = test system: primary cultured human adipocytes; test: GLUT4 and UCP1 protein expression in primary cultured human adipocytes; type: cell-based; conditions: 7-day treatment period
Experimental: (§1) Human adipocyte precursor cells isolated from subcutaneous abdominal fat were purchased from LaCell, LLC, New Orleans, La. Cells were seeded and grown to confluence in DMEM/F12 with 10% heat inactivated FBS. Differentiation to mature adipocytes was induced in medium composed of 70% DMEM and 30% DMEMF12 supplemented with 3% FBS, 1 μM dexamethasone (Sigma D4902), […] biotin (Sigma B4639), 100 nM insulin (Sigma 15500), 20 μM pantothenate (Sigma P5155), 5 μM rosiglitazone (AK Scientific F325) and […] (Sigma 15879) for four days. Cells were maintained in medium composed of 70% DMEM and 30% DMEMF12 supplemented with 3% FBS, 1 μM dexamethasone, 33 μM biotin, 100 nM insulin, and 20 NM pantothenate for seven days before experimental treatment.
A solution of 10 mM Compound 102 was prepared in DMSO and diluted to 60 μM or 30 μM in maintenance medium without dexamethasone for cell treatment. In some experiments, cells were treated with 20 μM menthol (Sigma M2772).

[2] = test system: UCP-1 adipose tissue protein; test: UCP-1 adipose tissue protein in db/db mice (Western blot densitometry); type: in vivo; conditions: 100 mg/kg qd for 3 weeks, tissue 4 hours after last dose, FIG. 10
Experimental: Adipose tissue was collected 4 hours after the last dose of Compound 102.

[3] = Phase 2a clinical trial of Compound 102 (fasting plasma glucose, body weight); type: in vivo, human
Experimental: This Phase 2a clinical trial was conducted in the U.S. (103 subjects) and Korea (27 subjects). […] Subjects were treated with one of four active doses (100 mg once-daily (qd), 100 mg twice-daily (bid), 200 mg qd, or 200 mg bid) of Compound 102 or placebo for 4 weeks after having 3 weeks of placebo run-in. […] Body weights, as secondary endpoints, were measured at Day 1 and Day 29 and at the follow-up visit 1 week after treatment stopped, at Day 35. […] The effect was most pronounced in the U.S. subjects and in the 100 qd dose group.

human adipocytes = test: Beige adipocyte gene expression by RT-PCR in primary cultured human adipocytes; type: cell-based
Experimental: as §1
A solution of 10 mM Compound 102 was prepared in DMSO and diluted to 60 μM or 30 μM in maintenance medium without dexamethasone for cell treatment. […]
(§2) Total RNA was isolated from adipocyte cultures grown in 12-well plates using Trizol and Qiagen RNAeasy kits. Reverse transcriptase and PCR were conducted in one reaction with the reverse PCR primer priming cDNA synthesis using SuperScript® III Platinum® One-Step Quantitative RT-PCR System with Rox from Invitrogen (11745). Predesigned Taqman primer-probe sets were purchased from Applied Biosystems for the following human transcript sequences: UCP1 (Hs249211), PPARGC1α (HS527078), PPARU (Hs103110), CPT1b (Hs439777), and GLUT4/SLC2A4 (Hs380691). Aplicons were designed to span an intron-exon junction to avoid amplification of genomic sequences. Each sample RT-PCR assay was conducted in duplicate.

[4] = test system: Compound 102-induced UCP1 expression; test: Effect of inhibitors on Compound 102-induced UCP1 expression; type: cell-based, human; conditions: over 4 days; LY294002 20 NM, H89 20 μM; FIG. 9
Experimental: as §1
as §2, with “Each sample RT-PCR assay was conducted in duplicate.” left out

[5] = Rodent oral glucose tolerance test; type: in vivo; conditions: FIG. 13
From the text: In contrast, menthol potentiates the insulin sensitizing action of Compound 102 in a rodent oral glucose tolerance test.

[6] = human adipocytes, day 4, FIG. 3

- expression of TRPM8 menthol receptor mRNA (human adipocytes; FIG. 8): induced
- expression of Adipose Triglyceride Lipase (ATGL) (human adipocytes; [6]): significant increases
- expression of Carnitine palmitoyltransferase-Ib (CPT-1b) (human adipocytes; [6]): significant increases
- expression of Transient Potential Melastatin 8 Receptor (TRPM8R) (human adipocytes; [6]): significant increases
SMILES: Cc1cccc(Oc2c[nH]c(=O)[nH]c2=O)c1 [Compound 102, 5-(m-tolyloxy)pyrimidine-2,4(1H,3H)-dione]
- expression of GLUT4 protein ([1]; FIG. 5): continued to exist
- expression of UCP1 protein ([1]; FIG. 6): continued to exist
- levels of UCP-1 adipose tissue protein [2]: Increased levels
- body weight loss over the 4-week treatment period ([3]; Day 1 to Day 29, secondary endpoint): statistically significant improvements in body weight loss
- body weight 1 week after treatment (Day 35) compared to Day 29 ([3]; follow-up 1 week after treatment stopped, FIG. 2): all groups except for the 200 mg bid group showed continued loss
- fasting plasma glucose (FPG) ([3]; subjects with HbA1c 7-10%, 100 mg qd, 100 mg bid, 200 mg qd or 200 mg bid for 4 weeks, FIG. 1): progressive reduction
- GLUT4 mRNA (human adipocytes; 7-day treatment period, FIG. 4): continued to increase
- UCP1 mRNA (human adipocytes; 7-day treatment period, FIG. 4): continued to increase
- expression of the UCP1 activator PGC-1β (human adipocytes; FIG. 7): induced
- expression of the UCP1 activator PPARα (human adipocytes; FIG. 7): induced
- expression of GLUT4 (human adipocytes; [6]): significant increases
- expression of UCP-1 (human adipocytes; [6]): significant increases

SMILES: O=S(=O)(NCCNC/C=C/c1ccc(Br)cc1)c1cccc2cnccc12 [Compound H89]
- Compound 102-induced UCP1 mRNA in presence of inhibitor [4]: reduced UCP1 mRNA to levels of unstimulated controls or lower

SMILES: COc1cc(CN(CCN)C(=O)OC(C)c2ccccc2)ccc1OCc1ccccc1 (centres unmarked) [PBMC]
- Compound 102-induced UCP1 mRNA in presence of inhibitor [4]: reduced UCP1 mRNA to levels of unstimulated controls or lower

SMILES: CC1CCC(C(C)C)C(O)C1 (centres unmarked) [menthol, reference compound]
- insulin sensitization or glycemic control [5]: does effect insulin sensitization or glycemic control
- UCP1 expression (human adipocytes; 7 day treatment, 30 μM menthol, 30 NM Compound 102, versus Compound 102 alone, FIG. 12 panel a): did not induce expression
